Patent US20240246935A1 (Plexium, Inc., priority 2021, published 2024)

Tests used:
[1] = biological target: human E3 ligase component cereblon (CRBN) (Homo sapiens (Human), UniProt Q96SW2); experiment: Cereblon (CRBN) target engagement, NanoBRET TE Intracellular E3 Ligase Assay in transfected HEK-293T cells; settings: read-out: CRBN Binding EC50
Protocol: HEK293T cells were harvested ca. 75% confluent with trypsin and plated (500,000 cells/well) in a 6-well tissue culture plate in 2 mL of Dulbecco's Modified Eagle Medium (DMEM)+10% Fetal Bovine Serum (FBS) and incubated overnight at 37° C.
The NanoLuc-CRBN fusion vector (Nluc-CRBN; Promega) contains the coding region of human E3 ligase component cereblon (CRBN) fused to the C-terminus of the NanoLuc luciferase coding region. A mixture of 10 ng Nluc-CRBN and 990 ng DDB1 Expression Vector (Promega) was added to 125 μL Opti-Minimum Essential Medium (Opti-MEM™; Thermo Fisher) along with 2 μL P3000 reagent (Thermo Fisher) in a 1.5 mL epppendorf tube. This solution was added to Lipofectamine 3000 transfection reagent (5 μL; Thermo Fisher) in Opti-MEM (125 μL), mixed well, and incubated for 15 minutes at room temperature. The transfection mixture was added dropwise to cells and incubated overnight at 37° ° C., 5% CO2. Following transfection, cells were washed once with PBS, and trypsin (250 μL) was added and incubated 30-45 sec to dislodge cells. Complete media (2 mL) was added to resuspend cells to form a single cell suspension. Cells were centrifuged at 320×g for 5 min at room temperature, the supernatant was removed, and the cell pellet resuspended in Opti-MEM (3 mL; wash step repeated×2). After final resuspension in 5 mL Opti-MEM, cells were counted and resuspended at 200,000 cells/mL in Opti-MEM.
Cereblon target engagement was monitored by Bioluminescence Resonance Energy Transfer (BRET) in transfected HEK-293T cells using the NanoBRET TE Intracellular E3 Ligase Assay (Promega). Briefly, 384-well plates (white opaque plates, Corning 3574, low binding surface) were seeded with transfected HEK-293T cells (38 μL/well). 2 μL of 10 μM CRBN tracer (diluted 1:5 in Tracer Dilution Buffer) was added to each well. Plates were centrifuged at 320×g for 1 min at room temperature. Test compounds were added in a 11-point dilution series (typically 10 μM to […]) using a TECAN D300e Digital Dispenser. Plates were shaken for 2 minutes on a microplate shaker to mix compounds. Plates were centrifuged at 320×g for 1 min at room temperature, and subsequently incubated for 2 hours at 37° C.
After incubation, plates were allowed to cool to room temperature for 15 minutes. 20 μL of 3× Complete NanoBRET™ Nano-Glo® Substrate plus Inhibitor Solution (Promega, 1:166 Substrate and 1:500 dilution of Extracellular NanoLuc® Inhibitor diluted in Opti-MEM) were added to each well. Plates were incubated with shaking at room temperature for 3 minutes covered with foil. Plates were read on a CLARIOstar microplate reader (BMG LabTech), measuring at 450 nm (donor emission) and 610 nm (acceptor emission). The IC50 values were determined by regression to best fit four-parameter logistic curves using GraphPad Prism.

IKZF2 (Helios) = experiment: IKZF2 reporter degradation assay (HEK 293T IKZF2-mNeonGreen reporter cell line); assay type: cell-based, human; settings: 1 μM compound, 24 hour incubation, HEK 293T IKZF2-mNeonGreen reporter
Source text: Polycistronic plasmids were constructed for the mammalian expression of fluorescent reporter fusions of human transcription factors IKZF1 (Ikaros), IKZF2 (Helios), and IKZF3 (Aiolos). The respective protein sequences had their C-terminal end joined to a GGGGS linker repeated three times followed by mNeonGreen, P2A sequence, and mScarlet. The DNA sequences of the open reading frames are as follows:
IKZF1, IKZF2, and IKZF3 constructs were cloned into the UCOE Hygromycin expression vectors (Millipore Sigma). Reporter constructs were transfected using cationic lipid reagents into adherent HEK 293T cells and stable integrants were selected by treatment with 200 μg/mL hygromycin B. Clonal populations were obtained from the population of stable integrants either by limiting dilution or fluorescence activated cell sorting.
The clonal stable cell lines were maintained under constant 200 μg/mL hygromycin B selection while being passaged for use in the degradation assays. […] The fluorescence intensity of the IKZF1/2/3-mNeonGreen (FITC channel) and mScarlet (PE channel) reporters were routinely analyzed by flow cytometry to confirm consistent expression levels between experiments.
The IKZF1/IKZF2/IKZF3 degradation assays were carried out by harvesting the HEK 293T reporter cell lines and resuspending the cells in media formulated for reduced background fluorescence (FluoroBrite; Thermo Fisher). The respective cell lines were seeded at a density of 4000 cells/well into black-walled 384-well optical grade assay tissue culture plates. The cells were incubated overnight at 37° C. to allow for attachment to the assay plate. Dilutions of the compounds were prepared in DMSO from 10 mM compound stocks. The assay plates were treated with appropriate concentrations of the compounds by dispensing the DMSO dilutions in quadruplicate wells with an upper limit of 0.5% final DMSO.
After 24 hour incubation with the compounds, the assay plates were imaged on an ImageXpress Pico microscopy system (cells maintained at 37° C. during imaging) to obtain the fluorescent readouts. The assay plates were imaged in the FITC and Tetramethylrhodamine (TRITC) channels to obtain the mNeonGreen fluorescence intensity (reporter degradation data) and mScarlet fluorescence intensity (for cell segmentation). 293T-IKZF1 and 293T-IKZF3 reporter cell lines were imaged with exposures of 500 milliseconds (ms) for both FITC and TRITC channels, while the 293T-IKZF2 reporter cell line was imaged with exposures of 1000 ms for FITC and 1250 ms for TRITC. The resulting data was analyzed with Cell Reporter Xpress software using the 2-channel cell scoring analysis with a “percent positive” readout. The TRITC channel was selected for the “nuclei” segmentation with a threshold of 20 while the FITC channel was selected for the “Marker 1” segmentation and a threshold of 100 for the IKZF1 and IKZF3 reporter lines. […] The minimum segmentation width was set to 6 micrometers and the maximum segmentation width was set to 15 micrometers for all cell lines. The DCs calculations were determined by regression to best fit four-parameter logistic curves using GraphPad Prism.

Chain of human E3 ligase component cereblon (CRBN) (Q96SW2 whole entry): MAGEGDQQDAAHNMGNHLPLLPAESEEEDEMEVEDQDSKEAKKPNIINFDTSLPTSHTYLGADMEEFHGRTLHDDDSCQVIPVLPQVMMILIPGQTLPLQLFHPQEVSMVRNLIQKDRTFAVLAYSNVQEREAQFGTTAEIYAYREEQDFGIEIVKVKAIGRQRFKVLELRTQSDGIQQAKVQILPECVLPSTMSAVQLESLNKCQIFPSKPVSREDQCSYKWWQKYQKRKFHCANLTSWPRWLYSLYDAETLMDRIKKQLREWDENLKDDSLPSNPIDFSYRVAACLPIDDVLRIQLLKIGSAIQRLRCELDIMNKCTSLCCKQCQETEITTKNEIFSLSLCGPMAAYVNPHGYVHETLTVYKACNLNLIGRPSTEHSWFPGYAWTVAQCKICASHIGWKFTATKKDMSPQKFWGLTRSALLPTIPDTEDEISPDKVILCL
Chain of human E3 ligase component cereblon (CRBN) (Q16531 whole entry partner): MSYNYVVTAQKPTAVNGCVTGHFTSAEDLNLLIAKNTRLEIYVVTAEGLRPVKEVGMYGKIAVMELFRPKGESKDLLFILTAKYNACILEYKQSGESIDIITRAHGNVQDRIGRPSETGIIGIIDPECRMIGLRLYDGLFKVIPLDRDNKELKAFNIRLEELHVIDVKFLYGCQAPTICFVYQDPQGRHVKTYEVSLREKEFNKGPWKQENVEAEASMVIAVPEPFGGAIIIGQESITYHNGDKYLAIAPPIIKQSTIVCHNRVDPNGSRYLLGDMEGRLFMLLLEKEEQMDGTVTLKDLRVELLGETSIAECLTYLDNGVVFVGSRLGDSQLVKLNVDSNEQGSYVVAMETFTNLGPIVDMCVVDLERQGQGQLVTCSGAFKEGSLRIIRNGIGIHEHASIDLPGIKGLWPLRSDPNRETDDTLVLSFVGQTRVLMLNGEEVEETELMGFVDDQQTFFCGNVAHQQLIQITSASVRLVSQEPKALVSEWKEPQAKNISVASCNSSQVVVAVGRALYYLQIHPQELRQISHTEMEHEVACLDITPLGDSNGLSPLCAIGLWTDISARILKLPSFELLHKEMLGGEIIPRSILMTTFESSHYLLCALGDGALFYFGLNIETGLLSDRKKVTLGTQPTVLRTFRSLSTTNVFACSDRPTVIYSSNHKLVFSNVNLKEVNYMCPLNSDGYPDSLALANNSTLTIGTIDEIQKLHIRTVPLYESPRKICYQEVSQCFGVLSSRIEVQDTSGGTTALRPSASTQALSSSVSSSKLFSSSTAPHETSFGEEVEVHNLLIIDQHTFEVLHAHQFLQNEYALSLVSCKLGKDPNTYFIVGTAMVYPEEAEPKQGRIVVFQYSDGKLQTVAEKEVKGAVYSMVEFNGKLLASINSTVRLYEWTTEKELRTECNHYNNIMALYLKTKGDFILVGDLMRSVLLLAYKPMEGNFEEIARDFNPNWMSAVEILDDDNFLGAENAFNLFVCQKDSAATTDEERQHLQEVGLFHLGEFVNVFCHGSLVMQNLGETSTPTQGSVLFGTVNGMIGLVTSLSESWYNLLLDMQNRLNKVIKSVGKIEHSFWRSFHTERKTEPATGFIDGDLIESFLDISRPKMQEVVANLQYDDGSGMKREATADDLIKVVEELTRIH

Row | Compound | EC50 [1] | IKZF2 % Degradation @ 1 μM (IKZF2 (Helios))
1 | O=C1NC(=O)C2(N3Cc4cc(O[C@H]5CCC[C@@H]5N5CC(c6ccccc6)C5)ccc4C3=O)CC1C2 [Compound 105, 1-(1-oxo-5-(((1S,2S)-2-(3-phenylazetidin-1-yl)cyclopentyl)oxy)isoindolin-2-yl)-3-azabicyclo[3.1.1]heptane-2,4-dione] | > 10 µM | 
2 | O=C1NC(=O)C2(N3Cc4cc(O[C@H]5CCCC[C@@H]5N5CCC(c6ccccc6)C5)ccc4C3=O)CC1C2 (stereo partly drawn) [Compound 106, 1-(1-oxo-5-(((1S,2S)-2-(3-phenylpyrrolidin-1-yl)cyclohexyl)oxy)isoindolin-2-yl)-3-azabicyclo[3.1.1]heptane-2,4-dione] | > 10 µM | 
3 | O=C1CCC(N2Cc3cc(O[C@H]4CCCC[C@@H]4N4CC(c5ccc(F)cc5Cl)C4)ccc3C2=O)C(=O)N1 (stereo partly drawn) [Compound 103, 3-(5-(((1S,2S)-2-(3-(2-chloro-4-fluorophenyl)azetidin-1-yl)cyclohexyl)oxy)-1-oxoisoindolin-2-yl)piperidine-2,6-dione] |  | 73.4%
4 | N#Cc1cc(F)ccc1C1CN([C@H]2CCCC[C@H]2Oc2ccc3c(c2)CN(C2CCC(=O)NC2=O)C3=O)C1 (mixture of isomers) [Compound 102, Rac-2-(1-((cis)-2-((2-(2,6-dioxopiperidin-3-yl)-1-oxoisoindolin-5-yl)oxy)cyclohexyl)azetidin-3-yl)-5-fluorobenzonitrile] | 0.024 µM | 
5 | O=C1NC(=O)C2(N3Cc4cc(O[C@H]5CCC[C@@H]5N5CC(c6ccccc6Cl)C5)ccc4C3=O)CC1C2 [Compound 82, 1-(5-(((1S,2S)-2-(3-(2-chlorophenyl)azetidin-1-yl)cyclopentyl)oxy)-1-oxoisoindolin-2-yl)-3-azabicyclo[3.1.1]heptane-2,4-dione] | 0.921 µM | 
6 | O=C1CCC(N2Cc3cc(O[C@H]4CCC[C@@H]4N4CC(c5ccc(F)cc5Cl)C4)ccc3C2=O)C(=O)N1 (stereo partly drawn) [Compound 104, 3-(5-(((1S,2S)-2-(3-(2-chloro-4-fluorophenyl)azetidin-1-yl)cyclopentyl)oxy)-1-oxoisoindolin-2-yl)piperidine-2,6-dione] |  | 71.2%
7 | N#Cc1cccc(C2CN([C@H]3CCCC[C@H]3Oc3ccc4c(c3)CN(C35CC(C3)C(=O)NC5=O)C4=O)C2)c1 (racemic) [Compound 77, Rac-3-(1-((cis)-2-((2-(2,4-dioxo-3-azabicyclo[3.1.1]heptan-1-yl)-1-oxoisoindolin-5-yl)oxy)cyclohexyl)azetidin-3-yl)benzonitrile] | > 10 µM | 
8 | N#Cc1ccccc1C1CN([C@H]2CCCC[C@H]2Oc2ccc3c(c2)CN(C24CC(C2)C(=O)NC4=O)C3=O)C1 (racemic) [Compound 94, Rac-2-(1-((cis)-2-((2-(2,4-dioxo-3-azabicyclo[3.1.1]heptan-1-yl)-1-oxoisoindolin-5-yl)oxy)cyclohexyl)azetidin-3-yl)benzonitrile] | > 10 µM | 
9 | N#Cc1ccccc1C1CN([C@H]2CCCC[C@@H]2Oc2ccc3c(c2)CN(C24CC(C2)C(=O)NC4=O)C3=O)C1 (racemic) [Compound 95, Rac-2-(1-((trans)-2-((2-(2,4-dioxo-3-azabicyclo[3.1.1]heptan-1-yl)-1-oxoisoindolin-5-yl)oxy)cyclohexyl)azetidin-3-yl)benzonitrile] | > 10 µM | 
10 | N#Cc1ccc(C2CN([C@H]3CCCC[C@H]3Oc3ccc4c(c3)CN(C35CC(C3)C(=O)NC5=O)C4=O)C2)c(F)c1 (racemic) [Compound 90, Rac-4-(1-((cis)-2-((2-(2,4-dioxo-3-azabicyclo[3.1.1]heptan-1-yl)-1-oxoisoindolin-5-yl)oxy)cyclohexyl)azetidin-3-yl)-3-fluorobenzonitrile] | > 10 µM | 
11 | O=C1CCC(N2Cc3cc(O[C@H]4CCC[C@@H]4N4CC(c5cccc(F)c5)C4)ccc3C2=O)C(=O)N1 (stereo partly drawn) [Compound 88, 3-(5-(((1S,2S)-2-(3-(3-fluorophenyl)azetidin-1-yl)cyclopentyl)oxy)-1-oxoisoindolin-2-yl)piperidine-2,6-dione] |  | 71.4%
